Holding throughout (format): biochemical
Test [1] concerns the target Abl (h) (Homo sapiens, UniProt P00519). The experiment in a line: Kinase profiling, glass-fiber filter technology: Abl. The settings on record: test concentration of 10^−6 M; read-out: Abl inhibition score. Here is the method:
(§1) The in vitro inhibition of a panel of kinases was assessed using the glass-fiber filter technology as described by Davies, S. P. et al., Biochem J. (2000), 351; p. 95-105.
(§2) In the glass-fiber filter technology the activity of the kinase of interest is measured using an appropriate substrate that is incubated with the aforementioned kinase protein in the presence of (^33P) radiolabeled ATP. (^33P) Phosporylation of the substrate is subsequently measured as radioactivity bound on a glassfiber-filter.
(§3) All kinases are pre-diluted to a 10× working concentration prior to addition into the assay. The composition of the dilution buffer for each kinase is detailed below.
(§4) All substrates are dissolved and diluted to working stocks in de-ionised water.
(§5) In a final reaction volume of 25 μl, Abl (h) (5-10 mU) is incubated with 8 mM MOPS pH 7.0, 0.2 mM EDTA, 50 μM EAIYAAPFAKKK, 10 mM MgAcetate and [γ-^33P-ATP] (specific activity approx. 500 cpm/pmol, concentration as required). The reaction is initiated by the addition of the MgATP mix. After incubation for 40 minutes at room temperature, the reaction is stopped by the addition of 5 μl of a 3% phosphoric acid solution. 10 μl of the reaction is then spotted onto a P30 filtermat and washed three times for 5 minutes in 75 mM phosphoric acid and once in methanol prior to drying and scintillation counting.

Test [2] deals with EGFR (h) (Homo sapiens, UniProt P00533). Nature of the test: Kinase profiling, glass-fiber filter technology: EGFR. The settings on record: test concentration of 10^−6 M; read-out: EGFR inhibition score. As for the experimental part:
as §1, §2, §3, §4
as §5, with “EGFR” for “Abl”, “10 mM MnCl2, 0.1 mg/ml poly(Glu, Tyr) 4:1,” for “50 μM EAIYAAPFAKKK,”, “Filtermat A” for “P30 filtermat”

Test [3] deals with Fyn human (Homo sapiens, UniProt P06241). The experiment in a line: Kinase profiling, glass-fiber filter technology: Fyn. The settings on record: test concentration of 10^−6 M; read-out: Fyn inhibition score. Here is the method:
as §1, §2, §3, §4
as §5, with “Fyn human” for “Abl (h)”, “50” for “8”, “Tris” for “MOPS”, “7.5, 0.1” for “7.0, 0.2”, “EGTA, 0.1 mM Na3VO4, 250” for “EDTA, 50”, “KVEKIGEGTYGVVYK (Cdc2 peptide),” for “EAIYAAPFAKKK,”

Test [4] deals with Lck (h) (Homo sapiens, UniProt P06239). The experiment in a line: Kinase profiling, glass-fiber filter technology: Lck. The following applies: test concentration of 10^−6 M; read-out: Lck inhibition score. Here is the method:
as §1, §2, §3, §4
In a final reaction volume of 25 μl, Lck (h) (5-10 mU) is incubated with 50 mM Tris pH 7.5, 0.1 mM EGTA, 0.1 mM Na3VO4, 250 μM KVEKIGEGTYGVVYK (Cdc2 peptide), 10 mM MgAcetate and [γ-^33P-ATP] (specific activity approx. 500 cpm/pmol, concentration as required). The reaction is initiated by the addition of the MgATP mix. After incubation for 40 minutes at room temperature, the reaction is stopped by the addition of 5 μl of a 3% phosphoric acid solution.
(§6) 10 μl of the reaction is then spotted onto a P30 filtermat and washed three times for 5 minutes in 75 mM phosphoric acid and once in methanol prior to drying and scintillation counting.

In test [5] the target is Ret human (Homo sapiens, UniProt P07949). The experiment in a line: Kinase profiling, glass-fiber filter technology: Ret. The following applies: test concentration of 10^−6 M; read-out: Ret inhibition score. Here is the method:
as §1, §2, §3, §4
as §5, with “μl, Ret human” for “μl, Abl (h)”, “EDTA, 250” for “EDTA, 50”, “μM KKKSPGEYVNIEFG,” for “μM EAIYAAPFAKKK,”

Test [6] concerns the target Yes (h) (Homo sapiens, UniProt P07947). The experiment in a line: Kinase profiling, glass-fiber filter technology: Yes. The following applies: test concentration of 10^−6 M; read-out: Yes inhibition score. As for the experimental part:
as §1, §2, §3, §4
as §5, with “Yes” for “Abl”, “0.1 mg/ml poly(Glu, Tyr) 4:1,” for “50 μM EAIYAAPFAKKK,”, “Filtermat A” for “P30 filtermat”

Test [7] addresses cSRC (h) (Homo sapiens, UniProt P12931). The experiment in a line: Kinase profiling, glass-fiber filter technology: cSRC. The following applies: test concentration of 10^−6 M; read-out: cSRC inhibition score. As for the experimental part:
as §1, §2, §3, §4
In a final reaction volume of 25 μl, cSRC (h) (5-10 mU) is incubated with 8 mM MOPS pH 7.0, 0.2 mM EDTA, 250 μM KVEKIGEGTYGVVYK (Cdc2 peptide), 10 mM MgAcetate and [γ-^33P-ATP] (specific activity approx. 500 cpm/pmol, concentration as required). The reaction is initiated by the addition of the MgATP mix. After incubation for 40 minutes at room temperature, the reaction is stopped by the addition of 5 μl of a 3% phosphoric acid solution.
as §6

Test [8] deals with ErbB4 (h) (Homo sapiens, UniProt Q15303). The experiment in a line: Kinase profiling, glass-fiber filter technology: ErbB4. The settings on record: test concentration of 10^−6 M; read-out: ErbB4 inhibition score. Here is the method: as §1, §2, §3, §4
as §5, with “ErbB4” for “Abl”, “10 mM MnCl2, 0.1 mg/ml poly(Glu, Tyr) 4:1,” for “50 μM EAIYAAPFAKKK,”, “[γ-33P-ATP]” for “[γ-^33P-ATP]”, “Filtermat A” for “P30 filtermat”

Test [9] deals with Lyn (h) (Homo sapiens, UniProt P07948). Nature of the test: Kinase profiling, glass-fiber filter technology: Lyn. The settings on record: test concentration of 10^−6 M; read-out: Lyn inhibition score. Here is the method:
as §1, §2, §3, §4
as §5, with “Lyn” for “Abl”, “50” for “8”, “Tris” for “MOPS”, “7.5, 0.1” for “7.0, 0.2”, “EGTA, 0.1 mM Na3VO4, 0.1% β-mercaptoethanol, 0.1 mg/ml poly(Glu, Tyr) 4:1,” for “EDTA, 50 μM EAIYAAPFAKKK,”, “Filtermat A” for “P30 filtermat”

Test [10] addresses Blk (m) (Mus musculus, UniProt P16277). The experiment in a line: Kinase profiling, glass-fiber filter technology: Blk. The settings on record: test concentration of 10^−6 M; read-out: Blkl inhibition score. As for the experimental part: as §1, §2, §3, §4
In a final reaction volume of 25 μl, Blk (m) (5-10 mU) is incubated with 50 mM Tris pH 7.5, 0.1 mM EGTA, 0.1 mM Na3VO4, 0.1% β-mercaptoethanol, 0.1 mg/ml poly(Glu, Tyr) 4:1, 10 mM MgAcetate and [γ-33P-ATP] (specific activity approx. 500 cpm/pmol, concentration as required). The reaction is initiated by the addition of the MgATP mix. After incubation for 40 minutes at room temperature, the reaction is stopped by the addition of 5 μl of a 3% phosphoric acid solution. 10 μl of the reaction is then spotted onto a Filtermat A and washed three times for 5 minutes in 75 mM phosphoric acid and once in methanol prior to drying and scintillation counting.

In patent US9688691B2, “Macrocyclic quinazole derivatives and their use as MTKI” (Janssen Pharmaceutica NV, priority 2004, dated 2017) one finds inhibition data, which are given here for two compounds.

SMILES strings stand for the structures. Bounds are passed on as bounds.

Yes (h), sequence (P07947 whole entry): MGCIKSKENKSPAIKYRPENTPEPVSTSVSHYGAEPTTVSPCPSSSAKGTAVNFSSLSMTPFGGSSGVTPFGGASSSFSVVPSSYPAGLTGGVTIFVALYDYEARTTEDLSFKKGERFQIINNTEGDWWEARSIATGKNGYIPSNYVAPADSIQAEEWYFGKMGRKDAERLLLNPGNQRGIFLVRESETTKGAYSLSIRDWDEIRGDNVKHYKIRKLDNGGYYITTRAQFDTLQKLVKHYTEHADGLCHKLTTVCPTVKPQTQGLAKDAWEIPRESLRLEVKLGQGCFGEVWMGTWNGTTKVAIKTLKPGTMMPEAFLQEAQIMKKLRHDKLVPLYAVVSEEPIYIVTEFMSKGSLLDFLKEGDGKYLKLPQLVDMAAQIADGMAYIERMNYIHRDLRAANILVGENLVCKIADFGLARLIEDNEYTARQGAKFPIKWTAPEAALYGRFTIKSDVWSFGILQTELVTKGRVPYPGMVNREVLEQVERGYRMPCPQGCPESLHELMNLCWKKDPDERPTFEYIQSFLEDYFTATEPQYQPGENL
cSRC (h), sequence (P12931 whole entry): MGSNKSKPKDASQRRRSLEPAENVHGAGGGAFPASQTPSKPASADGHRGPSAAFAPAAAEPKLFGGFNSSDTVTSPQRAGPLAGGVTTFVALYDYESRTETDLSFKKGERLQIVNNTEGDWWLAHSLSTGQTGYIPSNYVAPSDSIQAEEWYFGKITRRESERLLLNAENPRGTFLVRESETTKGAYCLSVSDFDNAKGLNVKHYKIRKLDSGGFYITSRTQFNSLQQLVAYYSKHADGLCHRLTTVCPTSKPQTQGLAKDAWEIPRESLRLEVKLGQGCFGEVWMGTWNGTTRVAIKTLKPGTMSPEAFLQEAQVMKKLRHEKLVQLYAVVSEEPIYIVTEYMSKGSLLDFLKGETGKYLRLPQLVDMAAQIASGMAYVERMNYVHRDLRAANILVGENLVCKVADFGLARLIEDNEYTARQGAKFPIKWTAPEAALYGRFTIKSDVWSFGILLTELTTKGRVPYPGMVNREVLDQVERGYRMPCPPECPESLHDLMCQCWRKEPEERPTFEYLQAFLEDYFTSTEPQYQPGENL
Lck (h), sequence (P06239 whole entry): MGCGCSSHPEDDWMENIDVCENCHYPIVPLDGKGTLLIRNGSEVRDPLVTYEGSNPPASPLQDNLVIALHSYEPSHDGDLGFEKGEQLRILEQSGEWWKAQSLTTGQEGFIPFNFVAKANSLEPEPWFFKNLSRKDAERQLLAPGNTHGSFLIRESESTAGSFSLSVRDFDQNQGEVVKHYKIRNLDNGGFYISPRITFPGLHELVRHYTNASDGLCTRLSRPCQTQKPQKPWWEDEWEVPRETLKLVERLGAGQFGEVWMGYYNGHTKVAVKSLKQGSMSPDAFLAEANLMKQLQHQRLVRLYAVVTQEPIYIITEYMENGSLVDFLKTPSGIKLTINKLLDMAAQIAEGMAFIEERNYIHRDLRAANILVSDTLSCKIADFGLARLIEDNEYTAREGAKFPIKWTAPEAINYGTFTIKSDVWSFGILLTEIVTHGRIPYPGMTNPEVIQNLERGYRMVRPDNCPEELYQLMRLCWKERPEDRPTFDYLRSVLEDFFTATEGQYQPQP
EGFR (h), sequence (P00533 25-1210): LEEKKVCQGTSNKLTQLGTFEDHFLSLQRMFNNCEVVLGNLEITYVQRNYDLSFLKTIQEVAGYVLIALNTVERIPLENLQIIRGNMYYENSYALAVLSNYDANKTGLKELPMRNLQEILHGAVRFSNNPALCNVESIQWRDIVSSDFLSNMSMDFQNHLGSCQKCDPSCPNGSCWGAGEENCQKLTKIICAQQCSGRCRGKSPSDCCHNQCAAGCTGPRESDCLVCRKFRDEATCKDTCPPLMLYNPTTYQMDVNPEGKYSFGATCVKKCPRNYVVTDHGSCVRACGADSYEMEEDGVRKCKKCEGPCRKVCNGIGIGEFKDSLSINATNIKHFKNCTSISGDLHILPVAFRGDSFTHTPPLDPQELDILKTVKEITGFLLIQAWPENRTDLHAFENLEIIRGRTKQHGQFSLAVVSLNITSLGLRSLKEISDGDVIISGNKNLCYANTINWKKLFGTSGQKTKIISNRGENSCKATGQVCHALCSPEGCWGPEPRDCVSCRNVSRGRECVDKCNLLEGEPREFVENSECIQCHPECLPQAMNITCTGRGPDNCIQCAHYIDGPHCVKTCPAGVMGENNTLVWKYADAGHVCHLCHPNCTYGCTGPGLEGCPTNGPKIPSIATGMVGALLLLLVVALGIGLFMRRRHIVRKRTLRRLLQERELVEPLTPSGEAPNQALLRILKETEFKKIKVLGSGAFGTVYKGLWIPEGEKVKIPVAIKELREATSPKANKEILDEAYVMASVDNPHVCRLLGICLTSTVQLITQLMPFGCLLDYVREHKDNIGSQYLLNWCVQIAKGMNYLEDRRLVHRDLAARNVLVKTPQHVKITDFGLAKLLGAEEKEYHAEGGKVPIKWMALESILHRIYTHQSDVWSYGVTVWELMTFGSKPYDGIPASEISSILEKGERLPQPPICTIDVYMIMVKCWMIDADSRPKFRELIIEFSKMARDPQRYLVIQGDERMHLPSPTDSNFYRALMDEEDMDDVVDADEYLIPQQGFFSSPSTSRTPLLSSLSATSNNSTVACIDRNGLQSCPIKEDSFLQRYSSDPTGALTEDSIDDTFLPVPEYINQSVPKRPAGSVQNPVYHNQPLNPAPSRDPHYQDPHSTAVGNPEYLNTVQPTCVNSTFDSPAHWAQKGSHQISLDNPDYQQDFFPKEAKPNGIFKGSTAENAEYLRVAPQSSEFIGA
Blk (m), sequence (P16277 whole entry): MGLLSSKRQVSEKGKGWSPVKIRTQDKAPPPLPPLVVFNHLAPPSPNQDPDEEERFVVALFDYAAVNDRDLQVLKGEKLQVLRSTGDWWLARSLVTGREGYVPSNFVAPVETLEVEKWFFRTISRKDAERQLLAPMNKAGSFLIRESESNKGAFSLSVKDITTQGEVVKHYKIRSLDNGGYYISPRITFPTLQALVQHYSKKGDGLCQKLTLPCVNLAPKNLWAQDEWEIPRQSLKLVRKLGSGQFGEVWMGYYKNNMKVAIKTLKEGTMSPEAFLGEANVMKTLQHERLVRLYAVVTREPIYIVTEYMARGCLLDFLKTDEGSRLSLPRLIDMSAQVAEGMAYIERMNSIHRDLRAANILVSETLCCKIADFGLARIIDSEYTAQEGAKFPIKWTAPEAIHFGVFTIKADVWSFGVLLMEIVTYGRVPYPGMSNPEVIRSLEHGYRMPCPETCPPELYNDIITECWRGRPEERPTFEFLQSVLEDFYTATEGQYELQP
Lyn (h), sequence (P07948 whole entry): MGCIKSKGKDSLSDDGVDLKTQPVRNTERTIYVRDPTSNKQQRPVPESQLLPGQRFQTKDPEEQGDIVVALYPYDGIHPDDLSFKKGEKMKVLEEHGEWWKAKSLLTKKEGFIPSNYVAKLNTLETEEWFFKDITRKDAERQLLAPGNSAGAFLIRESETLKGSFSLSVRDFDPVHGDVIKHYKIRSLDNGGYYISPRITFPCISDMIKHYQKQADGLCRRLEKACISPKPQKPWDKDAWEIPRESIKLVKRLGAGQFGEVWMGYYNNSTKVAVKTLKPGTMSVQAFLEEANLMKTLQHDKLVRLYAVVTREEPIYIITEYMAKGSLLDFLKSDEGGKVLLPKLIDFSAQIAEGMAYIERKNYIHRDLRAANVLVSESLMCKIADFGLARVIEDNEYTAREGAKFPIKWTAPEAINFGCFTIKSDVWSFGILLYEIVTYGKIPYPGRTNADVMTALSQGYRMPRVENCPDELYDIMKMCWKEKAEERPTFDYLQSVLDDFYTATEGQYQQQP
Abl (h), sequence (P00519 whole entry): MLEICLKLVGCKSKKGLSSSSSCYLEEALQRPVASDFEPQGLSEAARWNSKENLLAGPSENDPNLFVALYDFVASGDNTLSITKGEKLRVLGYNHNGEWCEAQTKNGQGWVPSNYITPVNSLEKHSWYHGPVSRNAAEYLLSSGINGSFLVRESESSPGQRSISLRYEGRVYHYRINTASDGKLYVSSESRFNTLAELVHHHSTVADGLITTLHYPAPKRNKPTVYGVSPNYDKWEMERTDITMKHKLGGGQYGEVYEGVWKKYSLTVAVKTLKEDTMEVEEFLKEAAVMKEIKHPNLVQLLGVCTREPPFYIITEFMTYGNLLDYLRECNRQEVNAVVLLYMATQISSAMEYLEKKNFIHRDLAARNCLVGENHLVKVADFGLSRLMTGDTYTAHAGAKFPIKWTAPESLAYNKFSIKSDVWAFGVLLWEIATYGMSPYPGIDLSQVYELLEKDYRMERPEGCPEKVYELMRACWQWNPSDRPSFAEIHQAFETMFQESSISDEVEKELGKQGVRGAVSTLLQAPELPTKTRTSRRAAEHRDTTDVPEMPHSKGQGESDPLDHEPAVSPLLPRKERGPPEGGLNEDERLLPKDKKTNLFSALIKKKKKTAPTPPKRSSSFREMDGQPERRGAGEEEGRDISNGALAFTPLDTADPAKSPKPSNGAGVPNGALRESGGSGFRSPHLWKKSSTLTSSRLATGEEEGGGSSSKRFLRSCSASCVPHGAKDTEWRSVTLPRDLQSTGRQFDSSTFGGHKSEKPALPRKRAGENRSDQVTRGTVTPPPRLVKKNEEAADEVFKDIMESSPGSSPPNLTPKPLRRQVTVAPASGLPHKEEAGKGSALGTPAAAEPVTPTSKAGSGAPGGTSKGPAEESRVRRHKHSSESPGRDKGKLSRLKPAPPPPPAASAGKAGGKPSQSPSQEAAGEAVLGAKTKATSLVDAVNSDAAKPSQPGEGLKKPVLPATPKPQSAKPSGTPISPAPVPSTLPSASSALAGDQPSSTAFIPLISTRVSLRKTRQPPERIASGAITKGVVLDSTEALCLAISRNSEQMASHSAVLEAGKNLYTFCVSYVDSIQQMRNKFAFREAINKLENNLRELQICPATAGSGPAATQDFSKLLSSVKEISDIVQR

The inhibition is the change of the read-out against control, counted positive when it falls. With `COc1cc2ncnc3c2cc1OCCCNC(=O)[C@H](CC1CCCCC1)NC(=O)CCc1ccc(Cl)cc1N3` [Compound 8], the inhibition at 1 µM in test [1] is 10 to 30%; in [2], more than 80%; in [3], 60 to 80%; in [4], more than 80%; in [5] it was more than 80%; in test [6], more than 80%. The inhibition at 1 µM was more than 80% in [7] and 60 to 80% in test [8].
Turning to `COc1cc2ncnc3c2cc1OCCN(CCN1CCOCC1)C(=O)CNC(=O)Cc1ccc(Cl)cc1N3` [Compound 1], the inhibition at 1 µM is more than 80% in test [2]; 30 to 60% in test [9]; 30 to 60% in [10]; 10 to 30% in test [4]; 30 to 60% in test [6]; 60 to 80% in test [7].
